This passage reports Activity results from ChEMBL document CHEMBL3243922, “Synthesis, redox characteristics, and in vitro norepinephrine uptake inhibiting properties of 2-(2-mercapto-4,5-dihydroxyphenyl)ethylamine (6-mercaptodopamine)” (J Med Chem, 1979).

Holding throughout (settings): in vivo
Series [1] relates to Rattus norvegicus. Briefly: Pressor activity in iv dosed normotensive Sprague-Dawley rat assessed as dose required for increasing systolic blood pressure […] 30 mm Hg. It counts as organism-based, Artery.
Series [2] has as its system Rattus norvegicus. Nature of the series: Neurotoxicity in Sprague-Dawley rat heart atria assessed as inhibition of [3H]norepinephrine uptake at 10 mg/kg, iv after 24 hrs by scintillation counting analysis. It counts as toxicity, organism-based. Set-up: dose 10 mg/kg, route intravenous.
Series [3] concerns Rattus norvegicus. Briefly: Neurotoxicity in Sprague-Dawley rat heart atria assessed as inhibition of [3H]norepinephrine uptake at 20 to 160 mg/kg, iv after 24 hrs by scintillation counting analysis. The arrangement: dose 20-160 mg/kg, route intravenous. The format is toxicity, organism-based.
For series [4], the system named is Rattus norvegicus. Briefly: Central neurotoxicity in iv dosed Sprague-Dawley rat brain hypothalamus assessed as inhibition of [3H]norepinephrine uptake after 24 hrs by scintillation counting analysis. The format is organism-based.

In the case of `C[C@H](N)Cc1ccc(O)c(O)c1`, the Activity with Rattus norvegicus [1] came to 3.1 µg.

Turning to `NCCc1ccc(O)c(O)c1` [DOPAMINE], the Activity in the series with Rattus norvegicus [1] worked out at 2.9 µg.

Regarding `NCCc1cc(O)c(O)cc1O` [OXIDOPAMINE], the Activity with Rattus norvegicus [1] is recorded as 1.6 ×10⁻⁵ g; in the series with Rattus norvegicus [2], “Toxic”.

As to `CC(N)Cc1cc(O)c(O)cc1O` (stereo not drawn), the Activity in the series on Rattus norvegicus [1] is 6 ×10⁻⁵ g.

Regarding `Cl.NCCc1cc(O)c(O)cc1S`, the Activity entry is “Toxic” in the series with Rattus norvegicus [3], “Non-toxic” in the series on Rattus norvegicus [4] and 1.3 ×10⁻⁴ g with Rattus norvegicus [1].
